Read-outs that look alike come from different tables or passages of the source.
Tests used:
[1] = system: Xylella fastidiosa strain Temecula-1 (PDT); experiment: microbe, parasite or virus in culture; type: cell-based; details: for inhibition at 25 µM / inhibition at 50 µM: Xylella fastidiosa; for inhibition at 50 µM: 48 h, read-out: growth inhibition of Temecula1, 50 μM, 48 hrs, relative to untreated control; for inhibition at 25 µM / inhibition: 25 uM
[2] = system: X. fastidiosa Temecula 1 in V. vinifera cv. Carignane; type: in vivo, Vitis vinifera; details: for leaves with PD symptoms: at the end of 3 months, untreated nearly 100%; for progression of PD symptoms: in vivo
[3] = system: grapevine leaves (V. vinifera cv. Carignane)
[4] = system: grapevine leaves (V. vinifera cv. Carignane); experiment: Leaf disc phytotoxicity, chlorophyll loss
grapevines = experiment: Visible phytotoxicity in greenhouse after foliar spray or soil drench
[5] = system: Xf PD strain in V. vinifera grapevines; set-up: species or system Vitis vinifera; details: in vivo
[6] = system: Ca. Liberibacter asiaticus (Las); type: in vivo, C. sinensis; details: soil drench 1 g/tree, Hamlins, as early as 20 days post treatment
[7] = system: Ca. Liberibacter asiaticus (Las); type: in vivo, C. paradisi; details: soil drench 15 g/tree, grapefruits, as early as 20 days post treatment

CC(Cc1ccc(O)c(O)c1)C(C)Cc1ccc(O)c(O)c1 (centres unmarked) [4,4′-(2,3 dimethyltetramethylene) dipyrocatechol]
inhibition at 25 µM [1]: 100%
inhibition at 50 µM [1]: > 90%

COc1ccc2[nH]c3c(C)c4ccncc4c(C)c3c2c1 [9-methoxyellipticine]
inhibition [1]: 100%

CC(C)(C)CC(C)(C)c1ccc(OCCOCC[N+](C)(C)Cc2ccccc2)cc1 [Benzethonium chloride]
leaves with PD symptoms [2]: ~50%
progression of PD symptoms [2]: significantly reduced as well as delayed progression of PD symptoms
loss in chlorophyll content [3]: increasingly significant loss in chlorophyll content
phytotoxicity in the chlorophyll degradation assay ([4]; 25 mM): no appreciable phytotoxicity
visible phytotoxicity (grapevines; foliar sprays): not evident
visible phytotoxicity (grapevines; soil drench): not evident

CC(=O)Oc1ccccc1C(=O)Nc1ncc([N+](=O)[O-])s1 [Nitazoxanide]
inhibition at 25 µM [1]: 100%

Cc1cc2c(C(C)C)c(O)c(O)c(C=O)c2c(O)c1-c1c(C)cc2c(C(C)C)c(O)c(O)c(C=O)c2c1O [gossypol]
inhibition at 50 µM [1]: > 90%

CC1=CC(=O)c2ccccc2C1=O [menadione, 2-methyl-1,4-naphthoquinone]
inhibition at 25 µM [1]: 100%
inhibition at 50 µM [1]: > 90%
leaves with PD symptoms [2]: ~50%
progression of PD symptoms [2]: significantly reduced as well as delayed progression of PD symptoms
control of the progression of PD in field conditions [5]: Effective
Las metabolic activity (peroxidase gene expression relative to EF1 alpha) [6]: measureable suppression of Las metabolic activity
Las metabolic activity (peroxidase gene expression relative to EF1 alpha) [7]: measureable suppression of Las metabolic activity
loss in total chlorophyll content ([4]; grapevine leaf discs, within 48 hours, all concentrations tested (as low as 25 mM), vs water-treated control): ~40%
visible phytotoxicity (grapevines; foliar sprays): sporadic patches of purple pigmentation and necrosis
visible phytotoxicity (grapevines; soil drench): not evident

Cc1nccc2c(C)c3[nH]c4ccccc4c3cc12 [olivacine]
inhibition [1]: 100%

Cc1cc2nc3c(=O)[nH]c(=O)nc-3n(C[C@H](O)[C@H](O)[C@H](O)CO)c2cc1N(C)C [roseoflavin]
inhibition [1]: 100%
